System: SC-β cells
Experiment: FACS analysis of marker expression in cells differentiated to SC-β cells (end of Step 6, versus DMSO control)
Type: cell-based, human
Source text: FIG. 4A is a schematic illustrating an exemplary method for generating SC-β cells according to an embodiment of the present invention, e.g., by contacting a cell population directed to differentiate to SC-β cells under conditions that promote cell clustering with an agent that decreases the level and/or activity of rho-associated protein kinase (Rock inhibitor), a TGF-β superfamily member (e.g., Activin A), and a protein kinase inhibitor (e.g., staurosporine) during the steps indicated.
The SC-β cells generated in accordance with the methods of the present invention can be used in various assays to identify novel drugs that improve β cell function, survival, or proliferation, cell therapies (e.g., for treating diabetes and/or metabolic disorders), and in the construction of artificial islets and/or an artificial pancreas.

[1] = S4 cells contacted during Step 5, cells at end of Step 6, versus control (DMSO)

CN[C@@H]1C[C@H]2O[C@@](C)([C@@H]1OC)n1c3ccccc3c3c4c(c5c6ccccc6n2c5c31)C(=O)NC4 [staurosporine]
endocrine population purity (FACS) [1]: near pure endocrine population
percentage of NKX6.1+, C-Peptide+ cells (FACS) [1]: higher percentage of NKX6.1+, C-Peptide+ cells
marker expression at differentiation stages S4, S5, S6 (FACS) (S4 cells contacted during Step 5 together with the Rock inhibitor, in the absence of Activin A): maintain marker expression

— patent US12123023B2, “Methods for generating stem cell-derived β cells and methods of use thereof” (President and Fellows of Harvard College, priority 2014, dated 2024)
